In one experiment the test system is AU-565. The experiment can be described thus: Western blotting of response markers. Format: cell-based. To be noted: resistant cell line AU-565; 24 hours; concentration dependent. As to the method:
(§1) In order to identify markers that could serve as response markers for determining whether a cancer in a subject is sensitive to treatment with a zearalenone analog compound, phospho-ERK, total ERK protein, phospho-pRB, total pRB, and Cyclin D1 protein levels in a cell line sensitive to Compound 106 (e.g., SK-MEL-28) and cell lines resistant to Compound 106 (e.g., AU-565) were examined by Western blotting. 2×10^6 cancer cells (SK-MEL-28 and AU-565) were plated into a 100 mm dish and incubated for two days. Test compound, e.g., Compound 106, was then added to each dish for 24 hours at a concentration ranging from […] to […]. Culture medium was added to the cells as a control. SK-MEL-28 and AU-565 cell lysate proteins were subjected to SDS-PAGE under reducing condition and immunoblotted with an antibody against phospho-ERK1/2 (catalog #9101, Cell Signaling Technology®, Danvers, Mass.), phospho-pRB (catalog #9307, Cell Signaling Technology®, Danvers, Mass.), or Cyclin D1 (catalog #sc-8396, Santa Cruz, Calif.). ERK1 (catalog #sc-93, Santa Cruz, Calif.) or pRb (catalog #sc-102, Santa Cruz, Calif.) antibody was used for the detection of the total amount of protein.

The next experiment concerns SK-MEL-28. The experiment is described as follows: Western blotting of response markers. Particulars: sensitive cell line SK-MEL-28, 24 hours. In kind it is cell-based. As to the method:
as §1

Experiment [1] deals with COLO-829 melanoma xenografts. The experiment can be described thus: Plasma human IL-8 (ELISA) in tumor bearing mice. Particulars: COLO-829 xenograft; 40 mg/kg i.v. QD×4; 24 hours after the fourth dosing. Format: in vivo. From the text:
(§2) In order to determine whether plasma IL-8 levels could be measurable in tumor xenograft bearing mice and whether plasma IL-8 levels change after treatment with Compound 106, COLO-829 and UACC-62 melanoma xenografts were established as Compound 106 sensitive xenografts in female nude mice. SF-295 human glioblastoma (BRAF wild-type) xenografts were established as an Compound 106 resistant tumor model in female nude mice. Female athymic NU/NU mice were inoculated subcutaneously with COLO-829, UACC-62 human melanoma cancer cells, or SF-295 human glioblastoma cells. Those animals that developed tumors of approximately 250 mm^3 were selected and randomized to two groups. The experiment consisted of a vehicle-treated and 40 mg/kg Compound 106-treated groups of 8 mice per group on the first day of treatment. Compound 106 was administered intravenously (i.v.) on a QD×4 (every day for a total of four injections) dosing schedule. The subcutaneous tumor volumes were measured on the first day of treatment and 24 hours after the fourth treatment. Heparinized blood was collected from these mice 24 hours after the fourth treatment with Compound 106 using a cardiac puncture, and plasma was isolated. The levels of human IL-8 in the plasma were determined by ELISA.

Experiment [2] concerns UACC-62 melanoma xenografts. The experiment can be described thus: Plasma human IL-8 (ELISA) in tumor bearing mice. In kind it is in vivo. To be noted: UACC-62 xenograft; 40 mg/kg i.v. QD×4; 24 hours after the fourth dosing.
Source text: as §2

Experiment [3] has as its system SF-295 human glioblastoma xenografts. The experiment can be described thus: Plasma human IL-8 (ELISA) in tumor bearing mice. In kind it is in vivo. To be noted: SF-295 tumor bearing mice; 40 mg/kg i.v. QD×4; 24 hours after the fourth dosing.
Source text: as §2

SMILES strings stand for the structures.

On to `CCNc1cc(O)c2c(c1)/C=C/C[C@H](O)[C@H](O)C(=O)/C=C\[C@@H](C)[C@H](C)OC2=O` [Compound 106], for which the “protein levels of phospho-ERK” value in the experiment with AU-565 and in the experiment with SK-MEL-28 (concentration dependent) was “inhibited” throughout. The “Protein levels of p27” value in the experiment on SK-MEL-28 is reported as “increased”. Moreover, in the experiment with SK-MEL-28, the phospho-pRB protein result is “decrease”. In the experiment on SK-MEL-28, the “protein levels of Cyclin D1” value is reported as “decreased”. Also, the “Plasma IL-8 levels” value in experiment [1] is “almost completely blocked”; in experiment [2], “almost completely blocked”; in experiment [3], “did not change”.
